Reference: the supplement of paper PMC10307832

Legend:
Assay in all cases: relative viability (nuclei count vs DMSO), 5 days (fraction); higher = more cells survive
[1] = compound: Cc1cnc(CNC(=O)c2c(=O)c3ccc(N4CCCN(C)CC4)nc3n3c2sc2ccccc23)cn1 [CX-5461] + Cc1nc(Nc2ncc(C(=O)Nc3c(C)cccc3Cl)s2)cc(N2CCN(CCO)CC2)n1 [Dasatinib] (partner 0.075 µM)
In short: (§1)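 For relative viability, nuclei counts in treated wells were divided by those in vehicle wells. Lung cancer cell lines had been pin-tool dosed in 1536-well plates the day after seeding and cultured for 5 days, then fixed and stained in one step (final 0.05% Triton X-100, 1% formaldehyde, 1 ug/ml Hoechst) and imaged at 4×. Doses were one drug alone or a fixed anchor-drug dose plus five library-drug doses (not always all listed) in √10 steps, and values are duplicate-plate medians.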

[2] = compound: O=C(Nc1cc(C(F)(F)F)cc(C(F)(F)F)c1)c1cc(Cl)ccc1O [IMD-0354] + CC(=O)Nc1cccc(-n2c(=O)n(C3CC3)c(=O)c3c(Nc4ccc(I)cc4F)n(C)c(=O)c(C)c32)c1 [Trametinib] (partner 0.02 µM)
In short: as §1

[3] = compound: Cc1cnc(CNC(=O)c2c(=O)c3ccc(N4CCCN(C)CC4)nc3n3c2sc2ccccc23)cn1 [CX-5461] + CC(C)C[C@H](NC(=O)[C@H](Cc1ccccc1)NC(=O)c1cnccn1)B(O)O [Bortezomib] (partner 0.002 µM)
In short: as §1

[4] = compound: O=C(Nc1cc(C(F)(F)F)cc(C(F)(F)F)c1)c1cc(Cl)ccc1O [IMD-0354] + COc1cc2c(Oc3ccc(NC(=O)C4(C(=O)Nc5ccc(F)cc5)CC4)cc3F)ccnc2cc1OCCCN1CCOCC1 [Foretinib] (partner 0.25 µM)
In short: as §1

Cell Line	relative viability ([1]; first compound 0.01 µM)	relative viability ([1]; first compound 0.03162 µM)	relative viability ([1]; first compound 0.1 µM)	relative viability ([1]; first compound 0.3162 µM)	relative viability ([1]; first compound 1 µM)	relative viability ([2]; first compound 0.04 µM)	relative viability ([2]; first compound 0.1265 µM)	relative viability ([2]; first compound 0.4 µM)	relative viability ([2]; first compound 1.265 µM)	relative viability ([2]; first compound 4 µM)	relative viability ([3]; first compound 0.01 µM)	relative viability ([3]; first compound 0.03162 µM)	relative viability ([3]; first compound 0.1 µM)	relative viability ([3]; first compound 0.3162 µM)	relative viability ([3]; first compound 1 µM)	relative viability ([4]; first compound 0.04 µM)	relative viability ([4]; first compound 0.1265 µM)	relative viability ([4]; first compound 0.4 µM)	relative viability ([4]; first compound 1.265 µM)	relative viability ([4]; first compound 4 µM)
NCI-H1755	0.412	0.476	0.461	0.422	0.34	0.858	0.796	0.694	0.665	0.228	1.05	1.03	0.972	0.99	0.877	0.912	1.05	0.854	0.586	0.278
HCC-78	0.431	0.381	0.406	0.421	0.322	0.765	0.687	0.766	0.782	0.334	0.434	0.485	0.548	0.498	0.428	0.554	0.574	0.488	0.701	0.322
IA-LM											0.785	0.795	0.734	0.877	0.355	1.17	1.17	0.384	0.42	0.0844
NCI-H322M	0.249	0.243	0.267	0.219	0.267	0.567	0.622	0.483	0.388	0.426	1.2	1.35	1.26		1.23	1.12	0.907	0.716	0.31	0.402
NCI-H3122	0.821	0.942	0.828	0.824	0.346	0.215	0.223	0.178	0.252	0.147	0.95	1.06	1.07	1.02	0.914	0.959	0.964	0.722	0.779	0.129
SK-LU-1	0.178	0.159	0.142		0.102	0.447	0.514	0.41	0.239	0.269		1.15	1.05	0.518	0.761	0.808	0.752	0.457	0.169	0.221
COR-L23	0.477	0.495	0.438	0.46	0.226	0.64	0.576	0.458	0.118	0.163	0.831	1.05	0.813	1.04	0.474	0.833	0.844	0.349	0.138	0.131
NCI-H1944	0.208	0.204	0.168	0.14	0.11	0.399	0.391	0.388	0.39	0.167						0.873	0.963	0.887	0.945	0.154
NCI-H1792	0.738	0.893	0.825	0.95	0.613	0.496	0.564	0.221	0.292	0.135	0.935	1.16	0.966	0.965	0.848					
